{"source": "patent US20120322060A1", "about": "“DIAGNOSIS AND MONITORING TREATMENT OF PSYCHIATRIC DISEASES WITH SPADIN AND RELATED METHODS” (CENTRE NATIONAL DE LE RECHERCHE SCIENTIFIQUE - CNRS -, priority 2011, published 2012)", "key": {"[1]": {"biological_target": "T1, TREK-1 (Mus musculus, UniProt P97438)", "T1 sequence (P97438 1-426)": "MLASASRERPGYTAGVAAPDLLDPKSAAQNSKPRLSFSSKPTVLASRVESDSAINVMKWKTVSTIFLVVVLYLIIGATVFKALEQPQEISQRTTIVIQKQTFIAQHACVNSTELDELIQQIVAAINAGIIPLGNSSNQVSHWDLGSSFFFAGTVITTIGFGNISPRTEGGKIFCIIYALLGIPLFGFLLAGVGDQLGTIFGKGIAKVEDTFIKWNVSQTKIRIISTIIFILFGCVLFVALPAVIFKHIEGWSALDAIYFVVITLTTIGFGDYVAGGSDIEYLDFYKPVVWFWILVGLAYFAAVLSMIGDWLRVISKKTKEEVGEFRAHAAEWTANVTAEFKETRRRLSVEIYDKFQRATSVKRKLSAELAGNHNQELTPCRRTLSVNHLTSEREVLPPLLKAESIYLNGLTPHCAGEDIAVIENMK", "assay": "Whole-cell patch-clamp of native currents on β-TC3 cell line", "assay_type": "cell-based", "parameters": "expressed in transfected cells; host or cells: COS-7 (DEAE-dextran transfection)", "details": "1 μM spadin; read-out: inhibition of endogenous TREK-1", "procedure": "Native currents elicited by these cells were recorded in the whole-cell configuration of the patch-clamp technique (as described for COS-7 cells) and in the presence of K^+ blockers."}, "[2]": {"biological_target": "T1, TREK-1", "assay": "Whole-cell patch-clamp on CA3 pyramidal neurons in hippocampus brain slices", "assay_type": "cell-based", "parameters": "a cellular network that endogenously expresses both TREK-1 and NTSR3/Sortilin; from tissue; host or cells: mouse hippocampal brain slices, CA3 pyramidal neurons", "details": "CA3 neurons of kcnk2-/- mice"}, "[3]": {"details": "in vivo", "procedure": "Since spadin exerted efficient effects after i.p. or i.v. administration, we evaluated its ability to pass through the blood-brain barrier. ^125I-labelled spadin (1 nmol of spadin plus 2×10^6 cpm ^125I-spadin) was i.v. injected and animals were sacrificed 30 min following injection. The brains were rapidly removed and homogenized. The radioactivity recovered in the brain was acid-extracted, quantified and analyzed by HPLC. […] The concentration of spadin recovered into the brain was estimated to stand around 10 nM, a concentration that corresponds to the affinity of spadin for TREK-1 and sufficient to be active on TREK-1 channel activity. This value was also in the same range of the IC50 determined by electrophysiological measurements (FIG. 3C)."}}, "note": "No end group written: not given here."}
{"sequence": "APLPRWSGPIGVSWGLR [spadin]", "values": [{"measurement": "inhibition at 1 µM", "setting": "[1]", "value": 36, "unit": "%"}, {"measurement": "inhibitory effect on arachidonic acid-induced current", "setting": "[2]", "value": "totally absent"}, {"measurement": "amount of spadin recovered in the brain", "setting": "[3]", "value": "Identical amounts"}]}
